# Laboratory results published in US5057520A, “7-(peptidylpyrolidinyl)naphthyridine antibacterial compounds” (Abbott Laboratories, priority 1989, dated 1991).
# Counter-ions that a name gives are not always drawn. Like-named read-outs stand apart in the source and are kept apart here.
# How the values were obtained:
# [1] = tested on: PSEUDOMONAS CEPACIA 296I; assay: In vitro MIC, agar dilution (BHIA); assay type: cell-based
# [2] = tested on: STREPTOCOCCUS PYOGENES EES61; assay: In vitro MIC, agar dilution (BHIA); assay type: cell-based; conditions: STREPTOCOCCUS PYOGENES EES61
# [3] = tested on: STREPTOCOCCUS AGALACTIAE CMX 508; assay: In vitro MIC, agar dilution (BHIA); assay type: cell-based; conditions: STREPTOCOCCUS AGALACTIAE CMX 508
# [4] = tested on: ENTEROCOCCUS FAECIUM ATCC 8043; assay: In vitro MIC, agar dilution (BHIA); assay type: cell-based
# [5] = Conversion of prodrug to parent drug in whole blood at 37° C.; assay type: in vitro ADME, Rat
# Method: (§1) An aqueous solution of prodrug (Z) is spiked into fresh whole blood containing sodium heparin as an anticoagulant. The sample is mixed gently by inversion and placed in a 37° waterbath. At selected time intervals an 0.5 ml aliquot of blood is removed and placed in a chilled 1.5 ml centrifuge tube (ice temperature). Samples are centrifuges at 13,000 rpm for two minutes to separate plasma. An 0.2 ml aliquot of the plasma sample is combined with 0.2 ml internal standard (7-(4-amino-2-methyl-1-pyrrolidinyl)-1-(2,4-difluorophenyl)-6-fluoro-1,4-d ihydro-4-oxo-1,8-naphthyridine-3-carboxylic acid in 0.2M sodium phosphate pH 7.2 buffer) and 6 mls CH2 Cl2 :EtoH (9:1 by volume). Samples are capped and shaken gently for 10 minutes. Samples are centrifuges at 2500 rpm for 10 minutes (4° C.). The aqueous layer is aspirated to waste and the organic layer is transferred to a conical centrifuge tube and evaporated to dryness with a stream of dry air and low heat ([…]). Samples are reconstituted with 0.2 ml mobile phase followed by vortexing. Samples are centrifuges at 2500 rpm for 10 minutes to separate precipitate. The supernatant is transferred to a WISP vial with plastic insert for HPLC analysis.
# [6] = tested on: PSEUDOMONAS AERUGINOSA A5007; assay: In vitro MIC, agar dilution (BHIA); assay type: cell-based
# [7] = tested on: MICROCOCCUS LUTEUS ATCC 9341; assay: In vitro MIC, agar dilution (BHIA); assay type: cell-based
# [8] = tested on: KLEBSIELLA PNEUMONIAE ATCC 8045; assay: In vitro MIC, agar dilution (BHIA); assay type: cell-based
# [9] = tested on: PSEUDOMONAS AERUGINOSA K799/61; assay: In vitro MIC, agar dilution (BHIA); assay type: cell-based
# [10] = tested on: STREPTOCOCCUS BOVIS A5169; assay: In vitro MIC, agar dilution (BHIA); assay type: cell-based; conditions: STREPTOCOCCUS BOVIS A5169
# [11] = tested on: ESCHERICHIA COLI JUHL; assay: In vitro MIC, agar dilution (BHIA); assay type: cell-based
# [12] = tested on: STREPTOCOCCUS PYOGENES 930 CONST; assay: In vitro MIC, agar dilution (BHIA); assay type: cell-based
# [13] = tested on: ESCHERICHIA COLI H560; assay: In vitro MIC, agar dilution (BHIA); assay type: cell-based
# From the text: The MIC results are in ug/ml.
# [14] = tested on: STREPTOCOCCUS PYOGENES 2548 INDUC; assay: In vitro MIC, agar dilution (BHIA); assay type: cell-based
# [15] = tested on: MICROCOCCUS LUTEUS ATCC 4698; assay: In vitro MIC, agar dilution (BHIA); assay type: cell-based
# [16] = tested on: PSEUDOMONAS AERUGINOSA K799/WT; assay: In vitro MIC, agar dilution (BHIA); assay type: cell-based
# [17] = Conversion of prodrug to parent drug in whole blood at 37° C.; assay type: in vitro ADME, Human
# Method: as §1
# [18] = tested on: PSEUDOMONAS AERUGINOSA BMH10; assay: In vitro MIC, agar dilution (BHIA); assay type: cell-based
# [19] = tested on: Stap. Aureus NCTC 10649; assay: Acute mouse protection test; assay type: in vivo; conditions: mice infected i.p. with Stap. Aureus NCTC 10649, observed 7 days; for SC (ED50): SC dosing at 1 and 5 hours post-infection; for Oral (ED50): oral dosing at 1 and 5 hours post-infection
# [20] = tested on: Strep. pyogenes EES 61; assay: Second in vitro MIC test, Brain Heart Infusion Broth (BHIB); assay type: cell-based
# [21] = tested on: E. Coli Juhl; assay: Acute mouse protection test; assay type: in vivo; conditions: mice infected i.p. with E. Coli JUHL, observed 7 days; for SC (ED50): SC dosing at 1 and 5 hours post-infection; for Oral (ED50): oral dosing at 1 and 5 hours post-infection
# [22] = Conversion of prodrug to parent drug in whole blood at 37° C.; assay type: in vitro ADME, Dog
# Method: as §1
# [23] = tested on: P. Aeruginosa A5007; assay: Acute mouse protection test; assay type: in vivo; conditions: mice infected i.p. with P. Aeruginosa A5007, observed 7 days; for SC (ED50): SC dosing at 1 and 5 hours post-infection; for Oral (ED50): oral dosing at 1 and 5 hours post-infection
# [24] = tested on: E. Coli Juhl; assay: Second in vitro MIC test, Brain Heart Infusion Broth (BHIB); assay type: cell-based
# [25] = tested on: Stap. Aureus CMX 553; assay: as above; assay type: cell-based
# [26] = tested on: Ps. Aeruginosa A5007; assay: as above; assay type: cell-based
# [27] = tested on: PROVIDENCIA STUARTII CMX 640; assay: In vitro MIC, agar dilution (BHIA); assay type: cell-based; conditions: read-out: MIC
Molecule,SC (ED50) [19] [mg/kg/day],Oral (ED50) [19] [mg/kg/day],MIC [20] [µg/mL],SC (ED50) [21] [mg/kg/day],Oral (ED50) [21] [mg/kg/day],SC (ED50) [23] [mg/kg/day],Oral (ED50) [23] [mg/kg/day],MIC [24] [µg/mL],MIC [25] [µg/mL],MIC [26] [µg/mL],Solubility pH 7.4 [mg/ml],Half Life Dog [22],further results
"7-[3-Norvaline-amino-1-pyrrolidinyl]-1-(2,4-difluorophenyl)-6-fluoro-1,4-di hydro-4-oxo-1,8-naphthyridine-3-carboxylic acid hydrochloride [Example 2b]",–,–,–,–,–,–,–,–,–,–,–,–,MIC [1]: 50 µg/mL; MIC [2]: 1.56 µg/mL; MIC [3]: 1.56 µg/mL; MIC [4]: .78 µg/mL; Half Life Rat [5]: 0.678 min; MIC [6]: 12.5 µg/mL; MIC [7]: 25 µg/mL; MIC [8]: .39 µg/mL; MIC [9]: .39 µg/mL; MIC [10]: 1.56 µg/mL; MIC [11]: .78 µg/mL; MIC [12]: .78 µg/mL; MIC [13]: .78 µg/mL; MIC [14]: .39 µg/mL; MIC [15]: 25 µg/mL; MIC [16]: 6.2 µg/mL; Half Life Human [17]: 75.5 s; MIC [18]: 6.2 µg/mL
"CCC[C@H](NC(=O)[C@@H](N)CCC)C(=O)NC1CCN(c2nc3c(cc2F)c(=O)c(C(=O)O)cn3-c2ccc(F)cc2F)C1 (stereo partly drawn) [Example 3b, 7-(3-L-Norvaline-L-Norvalineamino-1-pyrrolidinyl)-1-(2,4-difluorophenyl)-6-fluoro-1,4-dihydro-4-oxo-1,8-naphthyridine-3-carboxylic acid hydrochloride]",0.5,1.8,12.5,0.5,4.0,6.2,9.1,–,–,–,–,–,"Half Life Rat ([5]; conversion to parent drug in rat whole blood at 37° C., seconds): 0.858 min; Half Life Dog ([22]; conversion to parent drug in dog whole blood at 37° C., seconds): 86.5 s; Half Life Human ([17]; conversion to parent drug in human whole blood at 37° C., minutes): 2.1 m"
NCC(=O)NC1CCN(c2nc3c(cc2F)c(=O)c(C(=O)O)cn3-c2ccc(F)cc2F)C1 (stereo not shown) [Example 7],0.9,2.4,0.78,0.3,5.0,4.2,11.4,0.78,1.56,12.5,–,–,–
NC(Cc1ccc(O)cc1)C(=O)NC1CCN(c2nc3c(cc2F)c(=O)c(C(=O)O)cn3-c2ccc(F)cc2F)C1 (stereo not shown) [Example 13],0.4,1.7,12.5,–,–,9.1,15.1,12.5,12.5,50,0.06,–,–
CC(N)C(=O)NC1CCN(c2nc3c(cc2F)c(=O)c(C(=O)O)cn3-c2ccc(F)cc2F)C1 (stereo not shown) [Example 17],0.7,1.7,–,0.4,2.0,5.7,12.5,0.5,2.0,16,0.12,97.0 s,–
CC(C)CC(N)C(=O)NC1CCN(c2nc3c(cc2F)c(=O)c(C(=O)O)cn3-c2ccc(F)cc2F)C1 (stereo not shown) [Example 21],0.5,2.4,6.2,–,–,3.9,12.5,1.56,1.56,25,0.14,55.8 s,–
CSCCC(N)C(=O)NC1CCN(c2nc3c(cc2F)c(=O)c(C(=O)O)cn3-c2ccc(F)cc2F)C1 (stereo not shown) [Example 23],0.5,1.5,3.12,–,–,3.1,11.5,3.12,3.12,5.0,–,99.1 s,–
O=C(O)c1cn(-c2ccc(F)cc2F)c2nc(N3CCC(NC(=O)C4CCCN4)C3)c(F)cc2c1=O (stereo not shown) [Example 28],0.5,3.2,1.56,–,–,3.1,51.3,1.56,1.56,12.5,–,41 m,–
CCC[C@H](NC(=O)CNC(=O)CN)C(=O)NC1CCN(c2nc3c(cc2F)c(=O)c(C(=O)O)cn3-c2ccc(F)cc2F)C1 (stereo partly shown) [Example 30],0.7,2.2,100,–,–,4.8,3.3,25,25,> 100,–,–,–
"NC1CCN(c2nc3c(cc2F)c(=O)c(C(=O)O)cn3-c2ccc(F)cc2F)C1 (stereo not shown) [tosufloxacin, 7-(3-amino-1-pyrrolidinyl)-6-fluoro,1-(2,4-difluorophenyl)-1,4-dihydro-4-o xo-1,8-naphthyridine 3-carboxylic acid, reference compound]",0.6,1.5,–,0.2,0.9,> 25,6.2,–,–,–,–,–,"MIC ([1]; Burkholderia cepacia, read-out: MIC): 3.1 µg/mL; MIC [27]: 1.56 µg/mL; MIC ([6]; read-out: MIC): 0.78 µg/mL; MIC ([7]; ATCC9341, read-out: MIC): 1.56 µg/mL; MIC ([15]; ATCC4698, read-out: MIC): 0.78 µg/mL; MIC ([16]; read-out: MIC): 0.78 µg/mL"
